Tests used:
Format in all cases: in vivo, Heterodera glycines
[1] = tested on: race 2 SCN; assay: Greenhouse study: SCN cysts on roots of soybean grown from treated seed, race 2 SCN challenge; conditions: seed treatment, 2000-3000 SCN eggs, cysts counted after 28-30 days, mean of 6-8 replications, FIG. 3
Method: Various soybean lines were treated with the compound 3-phenyl-5-(thiophen-2-yl)-1,2,4-oxadiazole following standard industry protocols. The structure of 3-phenyl-5-(thiophen-2-yl)-1,2,4-oxadiazole is:
(§1) Untreated seed or seed treated only with a colorant were used as standard controls. Single soybean seed were planted in 3″×3″ pots filled with field soil mixed with sand and steam sterilized. Ten days after germination seedlings were inoculated with 2000-3000 SCN eggs isolated from cultures maintained on the appropriate soybean germplasm to maintain designated race. After inoculation, soil temperatures were maintained at 28° C. with 16-hour day-length for 28-30 days. On the last day of the incubation period, individual plants were uprooted. Cysts from each plant were collected by blasting the roots with pressurized water and washing the soil while trapping the released cysts on sieves. The collected cysts from individual plants were transferred to a counting dish. The total number of cysts from individual plants was counted under a dissecting microscope. Data is reported as the number of cysts collected from an individual pot and represent the mean of 6-8 replications.
All plants were treated with ACCELERON® (Monsanto Company, St. Louis, Mo., USA) to reduce fungal disease.

[2] = tested on: SCN; assay: Greenhouse trials: susceptible soybean line challenged with SCN with and without the compound (all plants with Acceleron); conditions: presence vs absence of the compound, all plants treated with ACCELERON
Method: as §1, with “3''×3''” for “3″×3″”, “replications. […] All plants were treated with […]® (Monsanto Company, St. Louis, Mo., USA) to reduce fungal disease.” for “replications.”

[3] = tested on: race 1 soybean cyst nematodes; assay: Field tests: yield of treated and untreated soybean lines in race 1 SCN fields; conditions: for yield, treated vs untreated: race 1 SCN
Method: Prior to planting, seeds were treated with chemistry according to standard industry protocols. Six different untreated and treated lines were planted in eight plots. The six lines were selected based on resistance reaction to race 1 and race 3 SCN. […] The levels of resistance were determined essentially as described by Schmitt, D. P. and Shannon, G., Crop Sci., 32:275-277 (1992), according to Table 4. Soil cores were collected at emergence near the root zone of the plant. Multiple soil samples were taken, combined, and crushed into small evenly-sized particles. A sample aliquot was combined with water allowed to sit, then stirred. The sample was then poured into a funnel and processed in a soil elutriator. The sample was counted, with a final number being given as eggs per 100 cc of soil. Based on the number of eggs per 100 cc of soil, the field was classified as low to high pressure, where about 0 to about 180 eggs per 100 cc of soil was considered to be low pressure, about 180 eggs to about 1100 eggs per 100 cc of soil was considered to be medium pressure, and greater than about 1100 eggs per 100 cc of soil was considered to be high pressure. Lines were planted in four medium and four high pressure fields containing race 1 soybean cyst nematodes. The medium pressure fields contained 536 eggs per 100 cc of soil while the high pressure fields contained 1645 eggs per 100 cc of soil. Yield was determined at harvest. The lines derived from Peking germplasm provided protection against race 1 SCN while the lines derived from PI88788 germplasm provided protection against race 3 SCN.

[4] = tested on: SCN; assay: Field trials (43): yield of treated PI88788-derived soybean lines under moderate to high nematode pressure; conditions: seed treatment 0.50 mg AI/seed with Fungicide + Insecticide (Base 2); adjusted to 13% moisture
Source text: Eleven different untreated and treated lines were planted in a total of 43 separate field trials with a single variety per location. The eleven lines were selected based on their resistance reactions to race 3 SCN. The eleven lines were developed from PI88788 source germplasm and display either moderate resistance or resistance to race 3 SCN. 3-Phenyl-5-(thiophen-2-yl)-1,2,4-oxadiazole was combined with commercial fungicides and insecticides in a tank slurry mix with colorant, polymer, and water at the recommended rates and allowed to mix thoroughly. Using a Gustafson continuous batch seed coater the seed batch was loaded, the treatment slurry was injected and the mixture was allowed to tumble for 35-40 seconds before being ejected into a paper storage bag. […] Sub-samples (˜ 1 pint of soil) were taken from each composite sample and placed in a plastic bag, with appropriate handling to ensure viability of nematodes, and sent to a lab for nematode quantification. […] Quantitative in-season nematode sampling using root and soil samples was conducted eight weeks after planting for trials. […] Samples were sent to a lab for nematode quantification. […] The data were calculated to represent bushels per acre by taking the grain weight over the square footage of each plot and adjusting to 13% moisture.

For `c1ccc(-c2noc(-c3cccs3)n2)cc1` [3-phenyl-5-(thiophen-2-yl)-1,2,4-oxadiazole], the “resistance to race 2 SCN (number of SCN cysts on soybean roots)” value [1] was “enhances resistance to race 2 SCN”, the SCN cyst counts [2] was “lower SCN cyst counts” and the “yield, treated vs untreated” value ([3]; high pressure field, 1645 eggs per 100 cc soil, Peking-moderately resistant (Line 2) and PI88788-moderately resistant (Line 5), FIG. 6) was “unexpected statistically higher yield”. The “yield, treated vs untreated” value ([3]; high pressure field, 1645 eggs per 100 cc soil, Peking-resistant (Line 3), PI88788-sensitive (Line 4), PI88788-resistant (Line 6)) was “no statistical difference”, the “yield, treated vs untreated” value ([3]; high pressure field, 1645 eggs per 100 cc soil, Peking-sensitive line (Line 1)) was “statistically higher yield than untreated” and the “yield advantage compared to untreated” value ([3]; high pressure field, average of the two moderately resistant lines) was 5.8 bushel per acre. The “yield in field tests (legend of FIG. 6)” value ([3]; high race 1 SCN pressure, about 1645 SCN eggs/100 cc soil) was “increase in yield”, the “yield in field tests (legend of FIG. 5)” value ([3]; low race 1 SCN pressure, about 536 SCN eggs/100 cc soil) was “increase in yield” and the “yield, treated vs untreated” value ([3]; medium pressure field, 536 eggs per 100 cc soil, Peking or PI88788 sensitive, moderately resistant and resistant lines, FIG. 5) was “No statistical difference in yield”. The “Average Yield” value [4] was 55.7 BU/A.
